Reference: patent publication US20260101916A1, “SWEETENED FIBER AND METHODS THEREOF” (ZeroIN Foods Inc., priority 2022, published 2026)

How the values were obtained:
Assay type in all cases: in vivo, human
[1] = Sensory testing by a panel of twelve tasters (Example 4); conditions: 10% solution
Experimental: The taste of the sweetened fiber of the present disclosure prepared according to Example 1 was assessed by an external third party using a panel of tasters. A group of twelve panelists formed a panel for the sensory evaluation. The ranking test was used to measure the overall difference and intensity score for four sensory attributes, flavor, aftertaste, and mouthfeel. Each panelist evaluated all four samples. […] Sample Preparation: Two 250 mL samples were prepared (10% solutions of sucrose (control) and corn sweetened fiber of Example 1-1. A sensory code consisting of a random 3-digit number was assigned to each sample. Taste Session: The sensory evaluation was carried out at BioFoodTech's Sensory Lab. Twelve experienced panelists were divided into two groups. A complete block design was chosen for the sensory evaluation of the four samples, including a ranking test used to determine the overall difference. Statistical Analysis for the Data: For the individual attributes, Analysis of Variance (ANOVA) and the Tukey-Kramer HSD test were used to analyze the difference among sample means of individual attributes at a 5% significance level. For the Ranking test, a Friedman-type statistic was used to determine if there was a statistically significant difference among samples at a 5% significance level. All statistical analyses were done using the JMP®8 (SAS Institute Inc., Cary, NC).

[2] = Double-blinded randomized crossover sensory study: sweetened fiber vs sucrose (Example 10); conditions: 10% solution
Experimental: The sensory characteristics of an example of the sweetened fiber of the present disclosure were evaluated and compared to those of sucrose. Any preference towards the exemplary sweetened fiber of the present disclosure or sucrose solutions was determined. The sensory acceptance of the exemplary sweetened fiber of the present disclosure and sucrose was evaluated. Study design: double-blinded, randomized crossover. Sixty adults (18-65 years old, 30 males and 30 females) were recruited for the study. […] Samples were evaluated for pleasantness, taste, flavour, sweetness, and mouthfeel using 9-point hedonic scales ([…]. (1952). Advanced taste test method. Food Engineering, 24, 58-61, 194). […] The intensity of sweetness, bitterness, and metallic taste was determined using a 100 mm Visual Analogue Scale (VAS). […] Data analysis: The preference towards either blinded samples of 10% solution of Sucrose or 10% solution of the exemplary sweetened fiber of the present disclosure was determined with a forced paired preference test ([…]., Heymann, H. (2010). Sensory evaluation of food. Springer, New York, NY.). […] If there was an effect of sex (P≤0.05), the data was analyzed separately for males and females. If there was no effect of sex (P>0.05), the pooled data for males and females was analyzed with the Friedman test followed by Dunn's multiple comparisons. […]

[3] = Sensory evaluation: sucrose vs sweetened fiber vs stevia extract (Example 9); conditions: score 1 to 100; 10% sucrose, 10% sweet fiber, 0.05% RebM; FIG. 7
Experimental: A sensory evaluation session was conducted at BioFoodTech, to determine the taste difference between sucrose, the sweetened fiber of the present disclosure and stevia extract solutions. A group of twelve panelists formed a panel for the sensory evaluation. The ranking test measured the overall difference and intensity score for sensory attributes, including the strength of flavor, bitterness, liquorice taste and off-flavor.
A group of experienced panelists from BioFoodTech formed a panel for a sensory evaluation session to determine the quality difference between the sweet product samples.
Three 250 mL samples were prepared (10% solutions of sucrose, 10% the sweetened fiber of the present disclosure and 0.05% solution of Rebaudioside M (RebM). A sensory code consisting of a random 3-digit number was assigned to each sample.
Twelve experienced panelists were divided into two groups. A complete block design was chosen for the sensory evaluation of the […], including a ranking test used to determine the overall difference and intensity scoring for four […] attributes (strength of flavor, bitterness, liquorice taste and off-flavor). The four coded samples were presented to each panelist in a balanced order throughout the evaluation.
In the individual attributes evaluation, the panelists were asked to quantify the difference of specific attributes among the four samples by scoring from 1 to 100 (1 for none and 100 for the strongest, see FIG. 7) to reflect the intensity of the attribute best.

[4] = Comparative sensory study: sweetened fiber vs mixture of sweetener and fiber vs sweetener alone (Example 8); conditions: 9-point hedonic scale, 10% in water, N=12, FIG. 6
Experimental: The sensory characteristics of the sweetened fiber of the present disclosure were evaluated against a simple mixture of dietary fiber and stevia extract or stevia extract alone. The preference towards the sweetened fiber of the present disclosure, a mixture of dietary fiber and stevia extract, or stevia extract alone was determined. Any sensory difference between the sweetened fiber of the present disclosure versus a mixture of dietary fiber and stevia extract was evaluated.
Study design: randomized crossover. Twelve adults were recruited for the study. Samples were evaluated for pleasantness using 9-point hedonic scales (Peryam, D. R., Girardot, N. F. (1952). Advanced taste test method. Food Engineering, 24, 58-61, 194.). Unstructured scales such as visual analogue scales (VAS) are also used for the sensory evaluation of food (Baten, W. D. (1946). Organoleptic tests pertaining to apples and pears. Journal of Food Science, 11, 84-94.). The intensity of off-taste, bitterness and sweet aftertaste sweetness were determined using a 10-point scale. […]
Data analysis: The normality of the data was evaluated using D'Agostino & Pearson omnibus normality test. If the data didn't follow a normal distribution, the statistical significance of preference and intensity was assessed with the Kruskal-Wallis test using an alpha criterion of 5%. […]

Compound | Rank mean (ranking taste preference) [1] | RankSum (ranking taste preference) [1] | Mouthfeel ([1]; n = 12) | Off-flavour ([1]; n = 12) | Sweetness ([1]; n = 12) | Taste preference ([1]; n = 12) | Mean acceptance values on hedonic scales [2] | Mean score, bitterness [3] | Mean score, liquorice taste [3] | Mean score, off-flavor [3] | Mean score, strength of flavor [3] | Pleasantness [4]
OC[C@H]1O[C@@](CO)(O[C@H]2O[C@H](CO)[C@@H](O)[C@H](O)[C@H]2O)[C@@H](O)[C@@H]1O [sucrose] | 2.58 | 31 | 73% | 0% | 100% | 98% | neutral or above the neutral | – | – | – | – | –
C=C1C[C@@]23CC[C@H]4[C@@](C)(CCC[C@@]4(C)C(=O)O[C@@H]4O[C@H](CO)[C@@H](O)[C@H](O[C@@H]5O[C@H](CO)[C@@H](O)[C@H](O)[C@H]5O)[C@H]4O[C@@H]4O[C@H](CO)[C@@H](O)[C@H](O)[C@H]4O)[C@@H]2CC[C@]1(O[C@@H]1O[C@H](CO)[C@@H](O)[C@H](O[C@@H]2O[C@H](CO)[C@@H](O)[C@H](O)[C@H]2O)[C@H]1O[C@@H]1O[C@H](CO)[C@@H](O)[C@H](O)[C@H]1O)C3 [Rebaudioside M] | – | – | – | – | – | – | – | highest | highest | highest | highest | no differences
